Results reported in article PMC5318888, “SAMHD1 enhances nucleoside-analogue efficacy against HIV-1 in myeloid cells” (Scientific Reports, 2017).

Target: T1, SAMHD1 (Homo sapiens, UniProt Q9Y3Z3)
T1 construct: The final concentrations were 100 nM SAMHD1(115–626), 10 nM Ppx1; strep-tag; made in house
Assay: SAMHD1 triphosphohydrolase continuous coupled-enzyme assay (MDCC-PBP phosphate biosensor, Ppx1)
Type: biochemical
Details: for inhibition of SAMHD1 GTP-activated TTP hydrolysis / activation of SAMHD1 TTP hydrolysis: 0.3 mM TTP; for inhibition of SAMHD1 GTP-activated TTP hydrolysis: 0.1 mM GTP; for inhibition of SAMHD1 GTP-activated TTP hydrolysis / hydrolysis by SAMHD1 (substrate): 0.3 mM analogue triphosphate; for activation of SAMHD1 TTP hydrolysis: 0.1 mM analogue triphosphate as activator; for hydrolysis by SAMHD1 (substrate): without and with 0.1 mM GTP
From the text: SAMHD1 hydrolysis, activation and inhibition by nucleotide analogues was quantified using a continuous coupled assay employing the fluorescent phosphate biosensor MDCC-PBP to measure phosphate release from combined SAMHD1 triphosphohydrolase and S. cerevisiae Ppx1 exopolyphosphatase activity, described previously. SAMHD1 and Ppx1 were expressed as strep-tagged fusion proteins and purified as described previously. Didanosine triphosphate (ddI-TP) and dideoxy ATP (ddATP) were from Trilink Biotechnologies, Stavudine triphosphate (d4T-TP) was from Jena biosciences and Chemcyte. Abacavir triphosphate and Carbovir triphosphate were chemically synthesised in house from abacavir and carbovir as described above. Experiments were performed in 20 μL reaction volumes in 384-well low-protein-binding microplates (Corning, USA). In typical experiments, solutions containing SAMHD1, Ppx1, MDCC-PBP and activator (GTP, ddI-TP or d4T-TP), or activator plus inhibitor, were incubated for 5 min in assay buffer (20 mM Tris pH 8.0, 150 mM NaCl, 5 mM MgCl2 and 2 mM TCEP) at 25 °C before the reaction was initiated by the addition of substrate (TTP, ddI-TP or d4T-TP). The final concentrations were 100 nM SAMHD1(115–626), 10 nM Ppx1, 2.5 μM BSA, 40 μM MDCC-PBP (80 μM in ABC-TP and CBV-TP assays). Activator, substrate and inhibitor were added at concentrations described below. The fluorescence intensity increase resulting from the phosphate-product binding to MDCC-PBP was recorded at 430 nm excitation and 465 nm emission over 10–30 min in a Clariostar multiwell plate reader (BMG). Steady-state rates were obtained from the fluorescence time courses by fitting a linear function with maximal slope using the Mars software (BMG). Apparent dissociation constant of ddI-TP binding (KS), catalytic constant (kcat), maximal rate (kmax) and the ddI-TP concentration at half maximal activation (Ka) were determined by nonlinear least squares fitting using a Hill-function in the software package Grafit 7.0.3 (Erithacus software, UK). All measurements were performed at least in triplicate and data are represented as mean ± SEM.

[1] = 1 mM TTP, varying ddI-TP, lower estimate
[2] = Hill equation fit, 0.2 mM GTP, mean ± SEM

T1 sequence (Q9Y3Z3 115-626): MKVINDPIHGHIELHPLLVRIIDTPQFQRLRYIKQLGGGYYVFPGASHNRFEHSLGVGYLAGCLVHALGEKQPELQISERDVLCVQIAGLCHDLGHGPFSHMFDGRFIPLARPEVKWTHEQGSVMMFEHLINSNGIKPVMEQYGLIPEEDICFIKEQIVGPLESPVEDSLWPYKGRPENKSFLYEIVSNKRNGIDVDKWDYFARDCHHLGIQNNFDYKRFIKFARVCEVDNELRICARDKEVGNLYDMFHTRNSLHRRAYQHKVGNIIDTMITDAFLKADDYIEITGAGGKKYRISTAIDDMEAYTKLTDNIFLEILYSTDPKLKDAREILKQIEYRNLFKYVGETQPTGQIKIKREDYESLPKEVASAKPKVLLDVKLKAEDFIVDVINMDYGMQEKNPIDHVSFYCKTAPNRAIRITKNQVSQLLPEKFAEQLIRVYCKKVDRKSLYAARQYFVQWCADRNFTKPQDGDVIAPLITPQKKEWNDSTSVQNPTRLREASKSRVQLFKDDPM

Row | hydrolysis by SAMHD1 (substrate) | SMILES | inhibition of SAMHD1 GTP-activated TTP hydrolysis | activation of SAMHD1 TTP hydrolysis | increase of ddI-TP hydrolysis in the presence of activating GTP (0.3 mM ddI-TP, 0.1 mM GTP vs no GTP) | Ka, ddI-TP concentration at half maximal activation of TTP hydrolysis [1] | maximal rate kmax of TTP hydrolysis activated by ddI-TP [1] | apparent binding constant KS of ddI-TP hydrolysis (Hill equation fit, 0.2 mM GTP (saturating activator), mean ± SEM) | Hill coefficient n of ddI-TP hydrolysis [2] | catalytic constant kcat of ddI-TP hydrolysis [2] | ddI-TP hydrolysis rate relative to TTP hydrolysis rate (fold slower) (in the presence of 0.1 mM GTP)
1 | no hydrolysis by SAMHD1 | Nc1ncnc2c1ncn2[C@H]1CC[C@@H](CO[P@@](=O)(O)O[P@](=O)(O)OP(=O)(O)O)O1 [ddATP, dideoxy ATP] | no measurable activation or inhibition | no measurable activation or inhibition | – | – | – | – | – | – | –
2 | not hydrolysed by SAMHD1 | Nc1nc(=O)c2ncn([C@H]3C=C[C@@H](COP(=O)(O)OP(=O)(O)OP(=O)(O)O)C3)c2[nH]1 [CBV-TP, Carbovir 5′-triphosphate] | neither ABC-TP nor CBV-TP displayed any activation or inhibition of SAMHD1 | neither ABC-TP nor CBV-TP displayed any activation or inhibition of SAMHD1 | – | – | – | – | – | – | –
3 | little or no hydrolytic activity | Cc1cn([C@H]2C=C[C@@H](COP(=O)(O)OP(=O)(O)OP(=O)(O)O)O2)c(=O)[nH]c1=O [d4T-TP, stavudine triphosphate] | not a SAMHD1 inhibitor or activator | not a SAMHD1 inhibitor or activator | – | – | – | – | – | – | –

Second part, the compound before the results:

Row | SMILES | hydrolysis by SAMHD1 (substrate) | inhibition of SAMHD1 GTP-activated TTP hydrolysis | activation of SAMHD1 TTP hydrolysis | increase of ddI-TP hydrolysis in the presence of activating GTP (0.3 mM ddI-TP, 0.1 mM GTP vs no GTP) | Ka, ddI-TP concentration at half maximal activation of TTP hydrolysis [1] | maximal rate kmax of TTP hydrolysis activated by ddI-TP [1] | apparent binding constant KS of ddI-TP hydrolysis (Hill equation fit, 0.2 mM GTP (saturating activator), mean ± SEM) | Hill coefficient n of ddI-TP hydrolysis [2] | catalytic constant kcat of ddI-TP hydrolysis [2] | ddI-TP hydrolysis rate relative to TTP hydrolysis rate (fold slower) (in the presence of 0.1 mM GTP)
4 | Nc1nc(NC2CC2)c2ncn([C@H]3C=C[C@@H](COP(=O)(O)OP(=O)(O)OP(=O)(O)O)C3)c2n1 [ABC-TP, abacavir-5′-triphosphate] | not hydrolysed by SAMHD1 | neither ABC-TP nor CBV-TP displayed any activation or inhibition of SAMHD1 | neither ABC-TP nor CBV-TP displayed any activation or inhibition of SAMHD1 | – | – | – | – | – | – | –
5 | O=c1[nH]cnc2c1ncn2[C@H]1CC[C@@H](COP(=O)(O)OP(=O)(O)OP(=O)(O)O)O1 [ddI-TP, didanosine triphosphate] | hydrolysed by SAMHD1 even in the absence of GTP | no significant inhibitory effects | activates SAMHD1 triphosphohydrolase activity, but to a much lesser degree than the natural activator, GTP | three-fold | > 300 µM | > 0.1 s⁻¹ | 226 ± 12 µM | 1.7 ± 0.1 | 0.24 ± 0.04 s⁻¹ | around six-fold
